Test [1] concerns HUVEC. Kind of test: (§1) Disruption of normal microtubule structure in HUVEC cells at 250 uM after 3 hrs. It is filed as functional, cell-based. Conditions: Homo sapiens.
In test [2] the test system is DLD-1. Kind of test: Cell cycle arrest in human DLD1 cells assessed as accumulation at G2/M phase at 25 uM. Format: functional, cell-based.
The test system of test [3] is DLD-1. The test can be described thus: Reduction in mitochondrial membrane potential in human DLD1 cells at 250 uM after 4 hrs assessed as decrease in fluorescence of mitoTracker green FM. Format: functional, cell-based.
In test [4] the test system is DLD-1. The test can be described thus: Antitumor activity against human DLD1 cells after 96 hrs. It is filed as functional, cell-based. To be noted: DLD-1, 96 h.
Test [5] concerns DLD-1. Kind of test: Antitumor activity in human DLD1 cell xenografted CD1 immunodeficient nude mouse at 100 mg/kg, iv assessed as mean tumor doubling time. It is filed as functional. In general terms: In xenograft studies the graft and the host belong to different species.
The test system of test [6] is DLD-1. The test can be described thus: Antitumor activity in human DLD1 cells xenografted CD1 immunodeficient nude mouse at 100 mg/kg after 24 hrs assessed as decrease in functional vasculature. Also noted: scale not given: the % may be the effect or the level left.
For test [7], the system named is HUVEC. The test is described as §1. It is filed as functional, cell-based. To be noted: Homo sapiens. This is another data set of the same source.
For test [8], the system named is DLD-1. The test can be described thus: Antitumor activity in human DLD1 cells xenografted CD1 immunodeficient nude mouse at 100 mg/kg after 24 hrs assessed as increase in tumor necrosis. Format: functional.
The subject of test [9] is DLD-1. Kind of test: Reduction in mitochondrial membrane potential in human DLD1 cells at 250 uM after 7 hrs assessed as decrease in fluorescence of mitoTracker green FM. It is filed as functional, cell-based.
Test [10] deals with DLD-1. Kind of test: Reduction in mitochondrial membrane potential in human DLD1 cells at 250 uM after 24 hrs assessed as decrease in fluorescence of mitoTracker green FM. It is filed as functional, cell-based.
For test [11], the system named is DLD-1. The test can be described thus: Antitumor activity in human DLD1 cell xenografted CD1 immunodeficient nude mouse at 100 mg/kg, iv assessed as weight loss. It is filed as functional.
For test [12], the system named is DLD-1. The test can be described thus: Antitumor activity against human DLD1 cells after 1 hr by MTT assay. It is filed as functional, cell-based. To be noted: DLD-1, 1 h. (In general: Tetrazolium assays rely on reduction of a dye to a coloured formazan, in cell work by metabolically active cells.)
Test [13] concerns HUVEC. Kind of test: Disruption of normal microtubule structure in HUVEC cells at 250 uM after 1 hr. Conditions: Homo sapiens. Format: functional, cell-based.
The subject of test [14] is DLD-1. Kind of test: Antitumor activity in human DLD1 cell xenografted CD1 immunodeficient nude mouse assessed as weight loss. It is filed as functional.
Test [15] deals with DLD-1. Kind of test: Antitumor activity in human DLD1 cells xenografted CD1 immunodeficient nude mouse after 24 hrs assessed as increase in tumor necrosis. Format: functional.
For test [16], the system named is DLD-1. The test can be described thus: Antitumor activity in human DLD1 cells xenografted CD1 immunodeficient nude mouse after 24 hrs assessed as decrease in functional vasculature. Further details: scale not given: the % may be the effect or the level left.
Test [17] concerns DLD-1. Kind of test: Antitumor activity in human DLD1 cell xenografted CD1 immunodeficient nude mouse assessed as mean tumor doubling time. It is filed as functional.
Test [18] concerns HUVEC. The test can be described thus: Disruption of normal microtubule structure in HUVEC cells at 440 nM. It is filed as functional, cell-based. Conditions: Homo sapiens.
Test [19] concerns DLD-1. Kind of test: Disruption of normal microtubule structure in human DLD1 cells at 440 nM. Format: functional, cell-based.

Each structure is given as a SMILES string. The source made the active and inactive calls. The rule behind the calls is not given here.

Usually IC50 stands for the midpoint of a concentration-inhibition curve. With `O=C1N[C@H]2[C@@H]3OP(=O)([O-])O[C@@H]3[C@@H](O)[C@H](O)[C@@H]2c2cc3c(c(O)c21)OCO3.[Na+]`, the outcome with HUVEC [1], in the test on DLD-1 [2], in the test on HUVEC [7] and with HUVEC [13] was inactive. The result in the test on DLD-1 [3], in the test with DLD-1 [9] and with DLD-1 [10] was Active. Besides, the concentration for half-maximal inhibition (IC50) with DLD-1 [4] is 19.7 µM; in the test with DLD-1 [12], 253 µM. Also, the Activity amounted to 15.1 days with DLD-1 [5], 0.6% with DLD-1 [6], 95.3% in the test on DLD-1 [8] and 8.8% with DLD-1 [11].
On to `CC(=O)O[C@H]1C(=O)[C@@]2(C)[C@H]([C@H](OC(=O)c3ccccc3)[C@]3(O)C[C@H](OC(=O)[C@H](O)[C@@H](NC(=O)c4ccccc4)c4ccccc4)C(C)=C1C3(C)C)[C@]1(OC(C)=O)CO[C@@H]1C[C@@H]2O` [PACLITAXEL], for which the Activity stood at 0.5% in the test with DLD-1 [14], 8.1% in the test on DLD-1 [15], 6.5% with DLD-1 [16] and 6.2 days in the test on DLD-1 [17]. For the same molecule, the outcome with HUVEC [18] and with DLD-1 [19] was Active.

(Values after ChEMBL document CHEMBL1143071, “Sodium pancratistatin 3,4-o-cyclic phosphate, a water-soluble synthetic derivative of pancratistatin, is highly effective in a human colon tumor model” (J Nat Prod, 2008).)
